{"source": "patent US20180296630A1", "about": "“METHODS AND COMPOSITIONS FOR PREVENTING OR TREATING OPHTHALMIC CONDITIONS” (Stealth BioTherapeutics Corp, priority 2012, published 2018)", "key": {"HFD/STZ diabetic rats": {"tested_on": "HFD/STZ diabetic rats", "assay": "Lens opacity (cataract) in HFD/STZ rat model", "type": "in vivo, Sprague-Dawley rat", "settings": "for Percentage of opacity / Percentage of severe opacity / Turbidity degree + (mildly opaque), number in group / Turbidity degree ++ (opaque), number in group / Turbidity degree +++ (moderately opaque), number in group / Turbidity degree ++++ (severely opaque), number in group / Turbidity degree − (transparent), number in group: HFD/STZ rat model", "protocol": "(§1) A rat model of diabetes was established by combination of 6-week HFD and low dose of STZ (30 mg/kg) injection or a single high dose of STZ (65 mg/kg) in SD rats. See generally, K. Srinivasan, B. Viswanad, Lydia Asrat, C. L. Kaul and P. Ramarao, Combination of high-fat diet-fed and low-dose streptozotocin-treated rat: A model for type 2 diabetes and pharmacological screening, Pharmacological Research, 52(4): 313-320, 2005. Rats of the same batch fed with normal chow (NRC) were used as a control."}, "[1]": {"tested_on": "STZ and HFD/STZ diabetic rats", "assay": "Inner blood-retinal barrier function (Evans blue extravasation) in diabetic SD rats", "type": "in vivo, Sprague-Dawley rat", "settings": "compared to rats on a HFD not administered peptide", "protocol": "FIGS. 10A and 10B are charts showing the integrity of the blood-retinal barrier of normal rats (NRC), diabetic rats, and diabetic rats treated with Phe-D-Arg-Phe-Lys-NH2 (SS-20) or D-Arg-2′,6′-Dmt-Lys-Phe-NH2(SS-31), as analyzed by Evans blue extravasation. (A) diabetes induced by STZ; (B) diabetes induced by HFD/STZ.\nas §1\nThe effect of the aromatic-cationic peptides on the inner blood-retinal barrier function in the SD rat model was investigated."}, "STZ diabetic rats": {"tested_on": "STZ diabetic rats", "assay": "Lens opacity (cataract) in STZ rat model", "type": "in vivo, Sprague-Dawley rat", "settings": "10 mg (Table 11: 10 mg/kg s.c.)", "protocol": "as §1"}, "[2]": {"tested_on": "several mammalian cell types", "settings": "energy-independent manner; cited from earlier work"}}, "note": "Non-standard residues stand in square brackets, D forms with d. No end group written: not given here.", "data": [{"substance": "F[dR]FK-NH2", "values": [{"measurement": "cataract formation in the lenses of diabetic rats", "setting": "HFD/STZ diabetic rats; HFD/STZ and STZ models (FIGS. 6 and 7, Tables 13 and 14)", "value": "prevention or reversal of cataract formation"}, {"measurement": "Percentage of opacity", "setting": "HFD/STZ diabetic rats; 3 mg (Table 9: 3 mg/kg s.c.)", "value": 75.0, "unit": "%"}, {"measurement": "Percentage of severe opacity", "setting": "HFD/STZ diabetic rats; 3 mg (Table 9: 3 mg/kg s.c.)", "value": 25.0, "unit": "%"}, {"measurement": "Turbidity degree + (mildly opaque), number in group", "setting": "HFD/STZ diabetic rats; 3 mg (Table 9: 3 mg/kg s.c.)", "value": 1}, {"measurement": "Turbidity degree ++ (opaque), number in group", "setting": "HFD/STZ diabetic rats; 3 mg (Table 9: 3 mg/kg s.c.)", "value": 1}, {"measurement": "Turbidity degree +++ (moderately opaque), number in group", "setting": "HFD/STZ diabetic rats; 3 mg (Table 9: 3 mg/kg s.c.)", "value": 0}, {"measurement": "Turbidity degree ++++ (severely opaque), number in group", "setting": "HFD/STZ diabetic rats; 3 mg (Table 9: 3 mg/kg s.c.)", "value": 1}, {"measurement": "Turbidity degree − (transparent), number in group", "setting": "HFD/STZ diabetic rats; 3 mg (Table 9: 3 mg/kg s.c.)", "value": 1}, {"measurement": "Percentage of opacity", "setting": "HFD/STZ diabetic rats; 10 mg (Table 9: 10 mg/kg s.c.)", "value": 75.0, "unit": "%"}, {"measurement": "Percentage of severe opacity", "setting": "HFD/STZ diabetic rats; 10 mg (Table 9: 10 mg/kg s.c.)", "value": 0, "unit": "%"}, {"measurement": "Turbidity degree + (mildly opaque), number in group", "setting": "HFD/STZ diabetic rats; 10 mg (Table 9: 10 mg/kg s.c.)", "value": 2}, {"measurement": "Turbidity degree ++ (opaque), number in group", "setting": "HFD/STZ diabetic rats; 10 mg (Table 9: 10 mg/kg s.c.)", "value": 1}, {"measurement": "Turbidity degree +++ (moderately opaque), number in group", "setting": "HFD/STZ diabetic rats; 10 mg (Table 9: 10 mg/kg s.c.)", "value": 0}, {"measurement": "Turbidity degree ++++ (severely opaque), number in group", "setting": "HFD/STZ diabetic rats; 10 mg (Table 9: 10 mg/kg s.c.)", "value": 0}, {"measurement": "Turbidity degree − (transparent), number in group", "setting": "HFD/STZ diabetic rats; 10 mg (Table 9: 10 mg/kg s.c.)", "value": 1}, {"measurement": "inner blood-retinal barrier function", "setting": "[1]", "value": "improved"}, {"measurement": "Opacity degree ++++, number in group", "setting": "STZ diabetic rats", "value": 1}, {"measurement": "Opacity degree +++, number in group", "setting": "STZ diabetic rats", "value": 0}, {"measurement": "Opacity degree ++, number in group", "setting": "STZ diabetic rats", "value": 2}, {"measurement": "Opacity degree +, number in group", "setting": "STZ diabetic rats", "value": 0}, {"measurement": "Opacity degree −, number in group", "setting": "STZ diabetic rats", "value": 2}, {"measurement": "Percentage of opacity", "setting": "STZ diabetic rats", "value": 60.0, "unit": "%"}, {"measurement": "Percentage of severe opacity", "setting": "STZ diabetic rats", "value": 20.0, "unit": "%"}]}, {"substance": "2′,6′-Dmt-D-Arg-Phe-Lys-NH2", "values": [{"measurement": "penetration of the plasma membrane", "setting": "[2]", "value": "readily penetrates"}]}]}
